Legend:
[1] = target: T1, GST-tagged recombinant human TYRO3 kinase domain (Homo sapiens, UniProt Q06418); experiment: TYRO3 Enzyme Assay (LanthaScreen Eu Kinase Binding); conditions: averaged IC50; TYRO3 5 nM; 60-minute incubation at 22° C.; TR-FRET
T1 construct: GST-tagged recombinant human TYRO3 kinase domain; purchased Carna PR7480A
T1 sequence (Q06418 518-790 limits assumed): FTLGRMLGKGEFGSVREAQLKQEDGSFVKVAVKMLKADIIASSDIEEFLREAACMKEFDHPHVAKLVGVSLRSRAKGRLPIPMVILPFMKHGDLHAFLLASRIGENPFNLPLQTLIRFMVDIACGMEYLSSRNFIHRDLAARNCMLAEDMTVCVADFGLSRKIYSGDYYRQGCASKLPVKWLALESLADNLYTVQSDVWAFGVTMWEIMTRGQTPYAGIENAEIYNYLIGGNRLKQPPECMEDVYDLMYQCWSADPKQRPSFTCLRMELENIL
Description: Compounds disclosed herein were screened for their ability to inhibit TYRO3 kinase using Invitrogen's LanthaScreenTM Eu Kinase Binding technology. GST-tagged recombinant human TYRO3 kinase domain from Carna (5 nM; Cat. No. P[…]) was incubated with 20 nM Alexa-Fluor® Tracer 236 (P[…]) and 2 nM Europium-anti-GST (Cat. No. A15116) along with test compound in a buffer consisting of 25 mM HEPES, pH 7.4, 10 mM MgCl2, 0.01% Triton X-100, and 2% DMSO. Compounds are typically prepared in a threefold serial dilution in DMSO and added to the assay to give the appropriate final concentration. After a 60-minute incubation at 22° C., the reaction was measured using a PerkinElmer EnVision multimode plate reader via TR-FRET dual wavelength detection, and the percent of control (POC) calculated using a ratiometric emission factor. […] The POC values were fit to a 4 parameter logistic curve and the IC50 value is point where the curve crosses 50 POC.

[2] = target: T2, His-tagged recombinant human AXL cytoplasmic domain (Homo sapiens, UniProt P30530); experiment: AXL Enzyme Assay (LanthaScreen Eu Kinase Binding); conditions: averaged IC50; 60-minute incubation at 22° C.; TR-FRET
T2 construct: His-tagged recombinant human AXL cytoplasmic domain
T2 sequence (P30530 473-894 limits assumed): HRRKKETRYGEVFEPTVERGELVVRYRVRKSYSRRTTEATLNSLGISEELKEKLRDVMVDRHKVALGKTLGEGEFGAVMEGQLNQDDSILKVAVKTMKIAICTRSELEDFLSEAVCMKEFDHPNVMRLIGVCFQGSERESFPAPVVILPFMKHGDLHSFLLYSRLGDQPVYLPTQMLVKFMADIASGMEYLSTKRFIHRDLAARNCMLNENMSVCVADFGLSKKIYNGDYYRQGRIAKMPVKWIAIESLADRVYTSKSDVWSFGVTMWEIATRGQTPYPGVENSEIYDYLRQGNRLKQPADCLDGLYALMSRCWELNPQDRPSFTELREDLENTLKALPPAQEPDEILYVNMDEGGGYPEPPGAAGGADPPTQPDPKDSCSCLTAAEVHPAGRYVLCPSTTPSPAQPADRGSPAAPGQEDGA
Description: Compounds disclosed herein were screened for their ability to inhibit AXL kinase using Invitrogen's LanthaScreen™Eu Kinase Binding technology. His-tagged recombinant human AXL cytoplasmic domain was incubated with 20 nM Alexa-Fluor® Tracer 236 (PR9078A), 2 nM biotinylated anti-His (Cat. No. M4408), and 2 nM europium-labeled Streptavidin (Cat. No. PV5899) along with test compound in a buffer consisting of 25 mM HEPES, pH 7.4, 10 mM MgCl2, 0.01% Triton X-100, and 2% DMSO. Compounds were typically prepared in a threefold serial dilution in DMSO and added to the assay to give the appropriate final concentration. After a 60-minute incubation at 22° C., the reaction was measured using a PerkinElmer EnVision multimode plate reader via TR-FRET dual wavelength detection, and the percent of control (POC) was calculated using a ratiometric emission factor. […] The POC values are fit to a 4 parameter logistic curve and the IC50 value is point where the curve crosses 50 POC.

human MET kinase Y1230S = target: T3, human MET kinase Y1230S (Homo sapiens, UniProt P08581, Y1230S); experiment: c-Met Enzyme Assay, Y1230S mutant; type: binding; conditions: averaged IC50; Y1230S 8 nM; 60-minute incubation at 22° C.; read-out: Y1230 S IC50
T3 construct: GST-tagged recombinant human MET kinase domain; purchased Signal Chem
T3 sequence (P08581 1078-1345 Y1230S): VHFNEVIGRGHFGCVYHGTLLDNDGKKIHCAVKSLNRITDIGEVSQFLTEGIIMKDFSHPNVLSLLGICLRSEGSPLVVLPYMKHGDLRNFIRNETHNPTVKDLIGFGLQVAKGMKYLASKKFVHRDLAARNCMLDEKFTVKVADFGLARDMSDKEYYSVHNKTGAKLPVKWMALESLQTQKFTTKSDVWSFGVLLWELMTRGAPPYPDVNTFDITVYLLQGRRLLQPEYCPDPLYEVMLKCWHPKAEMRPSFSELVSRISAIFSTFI
Description: The affinity of compound binding to wild type and mutant human MET kinases was measured using Invitrogen's LanthaScreen™ Eu Kinase Binding technology. Briefly, GST-tagged recombinant human MET kinase domain from Signal Chem (see Table 8 below for concentration in assay) was incubated with 50 nM Alexa-Fluor® Tracer 236 (Invitrogen Cat No. PR9078A) and 2 nM Europium-anti-GST (Invitrogen Cat. No. A15116) along with test compound in a buffer consisting of 25 mM HEPES, pH 7.4, 10 mM MgCl2, 0.01% Triton X-100, 1mM DTT, and 2% DMSO. Compounds were typically prepared in a three-fold serial dilution in DMSO and added to the assay to give the appropriate final concentration. After a 60-minute incubation at 22° C., the reaction was measured using a PerkinElmer EnVision multimode plate reader via TR-FRET dual wavelength detection, and the percent of control (POC) calculated using a ratiometric emission factor. […] The POC values were fit to a 4 parameter logistic curve and the IC50 value is point where the curve crosses 50 POC.

IC50 [1] | IC50 [2] | IC50 (human MET kinase Y1230S) | Compound
4 nM | 2 nM | 1.8 nM | COc1cc2nccc(Oc3ccc(NC(=O)c4cn(C(C)C)cc(-c5ccc(F)cc5C)c4=O)nc3)c2cc1OC [Example 19, N-(5-((6,7-dimethoxyquinolin-4yl)oxy)pyridin-2-yl)-5-(4-fluoro-2-methylphenyl)-1-isopropyl-4-oxo-1,4-dihydropyridine-3-carboxamide]
6 nM | 3 nM | 6.2 nM | COc1cc(-c2cn(C(C)C)cc(C(=O)Nc3ccc(Oc4ccnc5cc(OC)c(OC)cc45)cn3)c2=O)ccc1F [Example 20, N-(5-((6,7-dimethoxyquinolin-4yl)oxy)pyridin-2-yl)-5-(4-fluoro-3-methoxyphenyl)-1-isopropyl-4-oxo-1,4-dihydropyridine-3-carboxamide]
26 nM | 10 nM | 29.2 nM | COc1cc2nccc(Oc3ccc(NC(=O)c4cn(C(C)C)cc(-c5ccc(F)c(Cl)c5)c4=O)nc3)c2cc1OC [Example 21, 5-(3-chloro-4-fluorophenyl)-N-(5-((6,7-dimethoxyquinolin-4-yl)oxy)pyridin-2-yl)-1-isopropyl-4-oxo-1,4-dihydropyridine-3-carboxamide]
14 nM | 2 nM | 2.2 nM | CNC(=O)Cn1cc(C(=O)Nc2ccc(Oc3ccnc4cc(OC)c(OC)cc34)cn2)c(=O)c(-c2ccc(F)cc2)c1 [Example 22]
14 nM | 1 nM | 3.8 nM | COc1cc2nccc(Oc3ccc(NC(=O)c4cn(CC(=O)N(C)C)cc(-c5ccc(F)cc5)c4=O)nc3)c2cc1OC [Example 23, N-(5-((6,7-dimethoxyquinolin-4yl)oxy)pyridin-2-yl)-1-(2-(dimethylamino)-2-oxoethyl)-5-(4-fluorophenyl)-4-oxo-1,4-dihydropyridine-3-carboxamide]
54 nM | 1 nM | 16.5 nM | COc1cc2nccc(Oc3ccc(NC(=O)c4cn(CC(=O)N(C)C)cc(-c5ccc(F)c(F)c5)c4=O)nc3)c2cc1OC [Example 24, 5-(3,4-difluorophenyl)-N-(5-((6,7-dimethoxyquinolin-4-yl)oxy)pyridin-2-yl)-1-(2-(dimethylamino)-2-oxoethyl)-4-oxo-1,4-dihydropyridine-3-carboxamide]
54 nM | 2 nM | 8 nM | COc1cc2nccc(Oc3ccc(NC(=O)c4cn(CC(=O)N(C)C)cc(-c5ccc(Cl)cc5)c4=O)nc3)c2cc1OC [Example 25]
15 nM | 7 nM | 9.1 nM | COc1cc2nccc(Oc3ccc(NC(=O)c4c[nH]cc(-c5ccc(F)cc5)c4=O)nc3)c2cc1OC [Example 26, N-(5-((6,7-dimethoxyquinolin-4yl)oxy)pyridin-2-yl)-5-(4-fluorophenyl)-4-oxo-1,4-dihydropyridine-3-carboxamide]
3 nM | 1 nM | 1.1 nM | COc1cc2nccc(Oc3ccc(NC(=O)c4cn(C(C)C)c(C)c(-c5ccc(F)cc5)c4=O)nc3)c2cc1OC [Example 27, N-(5-((6,7-dimethoxyquinolin-4yl)oxy)pyridin-2-yl)-5-(4-fluorophenyl)-1-isopropyl-6-methyl-4-oxo-1,4-dihydropyridine-3-carboxamide]
7 nM | 1 nM | 1.8 nM | COc1cc2nccc(Oc3ccc(NC(=O)c4cn(C(C)C)c(C)c(-c5ccc(F)c(F)c5)c4=O)nc3)c2cc1OC [Example 28, 5-(3,4-difluorophenyl)-N-(5-((6,7-dimethoxyquinolin-4yl)oxy)pyridin-2-yl)-1-isopropyl-6-methyl-4-oxo-1,4-dihydropyridine-3-carboxamide]
6 nM | 1 nM | 1.5 nM | CCc1c(-c2ccc(F)cc2)c(=O)c(C(=O)Nc2ccc(Oc3ccnc4cc(OC)c(OC)cc34)cn2)cn1C(C)C [Example 29, N-(5-((6,7-dimethoxyquinolin-4yl)oxy)pyridin-2-yl)-6-ethyl-5-(4-fluorophenyl)-1-isopropyl-4-oxo-1,4-dihydropyridine-3-carboxamide]
20 nM | 2 nM | 89.2 nM | COc1ccc(-c2cn(C(C)C)cc(C(=O)Nc3ccc(Oc4ccnc5cc(OC)c(OC)cc45)cn3)c2=O)cc1 [Example 30, N-(5-((6,7-dimethoxyquinolin-4yl)oxy)pyridin-2-yl)-1-isopropyl-5-(4-methoxyphenyl)-4-oxo-1,4-dihydropyridine-3-carboxamide]
23 nM | 1 nM | 72.1 nM | COc1ccc(-c2cn(C(C)C)cc(C(=O)Nc3ccc(Oc4ccnc5cc(OC)c(OC)cc45)cn3)c2=O)c(F)c1 [Example 31, N-(5-((6,7-dimethoxyquinolin-4yl)oxy)pyridin-2-yl)-5-(2-fluoro-4-methoxyphenyl)-1-isopropyl-4-oxo-1,4-dihydropyridine-3-carboxamide]
9 nM | 2 nM | 7.1 nM | COc1cc2nccc(Oc3ccc(NC(=O)c4cn(C(C)C)cc(-c5ccc(F)cc5OC)c4=O)nc3)c2cc1OC [Example 32, N-(5-((6,7-dimethoxyquinolin-4yl)oxy)pyridin-2-yl)-5-(4-fluoro-2-methoxyphenyl)-1-isopropyl-4-oxo-1,4-dihydropyridine-3-carboxamide]
10 nM | 1 nM | 5 nM | COc1ccc2nccc(Oc3ccc(NC(=O)c4cn(C(C)C)c(C)c(-c5ccc(F)cc5)c4=O)nc3)c2c1 [Example 33, 5-(4-fluorophenyl)-1-isopropyl-N-(5-((6-methoxyquinolin-4-yl)oxy)pyridin-2-yl)-6-methyl-4-oxo-1,4-dihydropyridine-3-carboxamide]
14 nM | 2 nM | 4.1 nM | COc1cc2nccc(Oc3ccc(NC(=O)c4cn(CCC(C)C)cc(-c5ccc(F)cc5)c4=O)nc3)c2cc1OC [Example 34, N-(5-((6,7-dimethoxyquinolin-4yl)oxy)pyridin-2-yl)-5-(4-fluorophenyl)-1-isopentyl-4-oxo-1,4-dihydropyridine-3-carboxamide]
30 nM | 6 nM | 8.5 nM | COc1cc2nccc(Oc3ccc(NC(=O)c4cn(CCC(C)C)cc(-c5ccc(F)c(F)c5)c4=O)nc3)c2cc1OC [Example 35, 5-(3,4-difluorophenyl)-N-(5-((6,7-dimethoxyquinolin-4yl)oxy)pyridin-2-yl)-1-isopentyl-4-oxo-1,4-dihydropyridine-3-carboxamide]

Reference: patent US20200216416A1, “QUINOLINE COMPOUNDS AS INHIBITORS OF TAM AND MET KINASES” (Array BioPharma Inc., priority 2019, published 2020)
